This note sets out measurements from patent publication US8846691B2, “Heterocyclic carboxylic acid derivatives having a 2,5,7-substituted oxazolopyrimidine ring” (Sanofi, priority 2010, dated 2014).

Structures are written as SMILES.

In the experiment the target is T1, human Edg 1 receptor (Homo sapiens, UniProt P21453).
T1 construct: expressed in transfected cells; membrane preparation
T1 sequence (P21453 whole entry): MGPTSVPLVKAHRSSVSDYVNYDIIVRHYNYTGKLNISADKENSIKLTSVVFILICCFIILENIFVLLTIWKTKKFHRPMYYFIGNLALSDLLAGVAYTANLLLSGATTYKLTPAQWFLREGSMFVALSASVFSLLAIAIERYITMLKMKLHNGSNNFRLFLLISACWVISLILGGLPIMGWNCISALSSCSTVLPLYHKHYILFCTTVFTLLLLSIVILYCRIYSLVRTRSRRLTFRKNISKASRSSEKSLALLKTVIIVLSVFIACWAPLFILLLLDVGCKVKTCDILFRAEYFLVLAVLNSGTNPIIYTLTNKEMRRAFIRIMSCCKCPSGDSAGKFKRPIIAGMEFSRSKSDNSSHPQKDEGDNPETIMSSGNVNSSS
Nature of the experiment: GTP-γ-S assay using human Edg 1 receptors (scintillation proximity assay, CHO Flp-In membrane preparation). The format is biochemical. Particulars: test compound at 10 μM; high control 10 μM S1P regarded as 100% activation; background-corrected; triplicate; read-out: % activation (Edg 1 receptor activation in percent of the activation by 10 μM S1P). From the text:
Determination of the Pharmacological Activity A) GTP-γ-S Assay Using Human Edg 1 Receptors
In order to determine the Edg 1 receptor activation by the compounds of the invention, a GTP-γ-S ((GTP-γ-S=guanosine 5′-[thio]triphosphate) assay for G-protein coupled receptor binding based on the scintillation proximity assay principle was used, employing a cell membrane preparation from a CHO Flp-In cell line which constitutively overexpresses the human Edg 1 receptor.
The Flp-In™ expression system (Invitrogen, cat. no. K6010-01) allows the generation of stable mammalian cell lines into which the gene of interest has been integrated through homologous recombination at a specific genomic location called Flp Recombination Target (FRT) site by means of a Flp recombinase encoded by the pOG44 expression plasmid. The integration of the pcDNA5/FRT expression construct into the Flp-In host cell line genome results in the transcription of the gene of interest. The stably transfected cells become hygromycin-resistant.
One day prior to transfection, 200 000 Flp-In-CHO cells were seeded in Ham F-12 medium (Invitrogen, cat. no. 31765) supplemented with 10% fetal calf serum (FCS; Perbio Science, cat. no. SH30068.03) in a 6-well plate and incubated at 37° C./5% CO2 overnight. Using the FuGENE® 6 transfection reagent (Roche, cat. no. 11988387001), cells were cotransfected with the Flp recombinase expression plasmid pOG44 and a modified plasmid additionally containing the edg 1 gene (accession no. NM_001400) termed as pcDNA5-FRT-TO_nFLAG_DEST-EDG 1 with a 9:1 ratio. To obtain the modified pcDNA5-FRT-TO_nFLAG_DEST plasmid, the Invitrogen plasmid pcDNA5/FRT/TO (Invitrogen, cat. no. V6520-20) was adapted to the Gateway® (Invitrogen) cloning system by inserting a Gateway cassette containing attR recombination sites flanking a ccdB gene and a chloramphenicol-resistance gene (Gateway conversion system, Invitrogen, cat. no. 11828-029). In addition a FLAG tag epitope was added before the 5′ att recombination site to allow recombinant expression of N-terminally FLAG-tagged proteins.
For the transfection of one well, 1.08 μg of pOG44 and 0.12 μg of pcDNA5-FRT-TO_nFLAG_DEST-EDG 1 were mixed with 100 μl of serum-free Ham F-12 medium containing 6 μl of FuGENE® 6 transfection reagent. After 20 min of incubation, the transfection reagent/DNA complex was distributed dropwise on the cells. The cells were incubated for 24 h at 37° C. Then the cells from 3 wells were transferred to a T75 flask (Greiner Cellstar®, cat. no. 658175) containing Ham F-12 medium supplemented with 10% of FCS but without antibiotic and were incubated for another 24 h. 48 h after transfection, the medium was replaced by selection medium (Ham F-12 supplemented with 10% of FCS and 300 μg/ml of hygromycin B (Invitrogen, cat. no. 10687-010)). The medium was exchanged every 2 to 3 days until a resistant population of cells had grown. […] After 2 weeks of selection, the cells were transferred into T175 flasks (Greiner Cellstar®, cat. no. 660175) and cultivated for batch production. Cells were harvested from the culture flasks by short treatment (2 to 5 min) with Accutase (PAA, cat. no. L^11-007), resuspended in selection medium (see above) and centrifuged at 200×g for 5 min. Cells were resuspended in a mixture of 90% of FCS and 10% of dimethyl sulfoxide and stored frozen in liquid nitrogen.
A membrane preparation was obtained by standard methods from the afore-described CHO Flp-In cell line constitutively overexpressing the human Edg 1 receptor. Briefly, the cryopreserved cells were taken in culture and grown until confluency in T175 cell culture flasks (Becton Dickinson, cat. no. 35 5001). […]
For orientation: SPA uses beads or plates that emit light when radiolabelled molecules are held near them.
For `CCCOc1nc(OCC2CCC2)nc2oc(-c3cc(C)c(OCC(=O)N4CCC[C@H]4C(=O)O)c(C)c3)nc12` [Example 16, (S)-1-{2-[4-(5-Cyclobutylmethoxy-7-propoxyoxazolo[5,4-d]pyrimidin-2-yl)-2,6-dimethylphenoxy]acetyl}pyrrolidine-2-carboxylic acid], the activation at 10 µM amounted to 85%.
For `CCCOc1nc(Oc2ccccc2)nc2oc(-c3cc(C)c(OCC(=O)N4CCC[C@H]4C(=O)O)c(C)c3)nc12` [Example 8, (S)-1-{2-[2,6-Dimethyl-4-(5-phenoxy-7-propoxyoxazolo[5,4-d]pyrimidin-2-yl)phenoxy]acetyl}pyrrolidine-2-carboxylic acid], the activation at 10 µM turned out to be 108%.
Regarding `CCOc1nc(Oc2cc(F)ccc2C)nc2oc(-c3cc(C)c(OCC(=O)N4CCC[C@H]4C(=O)O)c(C)c3)nc12` [Example 14, (S)-1-(2-{4-[7-Ethoxy-5-(5-fluoro-2-methylphenoxy)oxazolo[5,4-d]pyrimidin-2-yl]-2,6-dimethylphenoxy}acetyl)pyrrolidine-2-carboxylic acid], the activation at 10 µM stood at 99%.
Regarding `CCCOc1nc(N(C)CCC(F)(F)F)nc2oc(-c3cc(C)c(OCC(=O)N4CCC[C@H]4C(=O)O)c(C)c3)nc12` [Example 15, (S)-1-[2-(2,6-Dimethyl-4-{5-[methyl-(3,3,3-trifluoropropyl)amino]-7-propoxyoxazolo[5,4-d]pyrimidin-2-yl}phenoxy)acetyl]pyrrolidine-2-carboxylic acid], the activation at 10 µM was 42%.
The value for `CCCOc1nc(Oc2cc(F)ccc2F)nc2oc(-c3cc(C)c(OCC(=O)N4CCC[C@H]4C(=O)O)c(C)c3)nc12` [Example 1, (S)-1-(2-{4-[5-(2,5-Difluorophenoxy)-7-propoxyoxazolo[5,4-d]pyrimidin-2-yl]-2,6-dimethylphenoxy}acetyl)pyrrolidine-2-carboxylic acid] was 101%; that for `CCOc1nc(Oc2cccc(F)c2)nc2oc(-c3cc(C)c(OCC(=O)N4CCC[C@H]4C(=O)O)c(C)c3)nc12` [Example 11, (S)-1-(2-{4-[7-Ethoxy-5-(3-fluorophenoxy)oxazolo[5,4-d]pyrimidin-2-yl]-2,6-dimethylphenoxy}acetyl)pyrrolidine-2-carboxylic acid] was 100%.
The value for `CCOc1nc(Oc2ccccc2F)nc2oc(-c3cc(C)c(OCC(=O)N4CCC[C@H]4C(=O)O)c(C)c3)nc12` [Example 12, (S)-1-(2-{4-[7-Ethoxy-5-(2-fluorophenoxy)oxazolo[5,4-d]pyrimidin-2-yl]-2,6-dimethylphenoxy}acetyl)pyrrolidine-2-carboxylic acid] was 70%; that for `CCCOc1nc(Oc2ccccc2F)nc2oc(-c3cc(C)c(OCC(=O)N4CCC[C@H]4C(=O)O)c(C)c3)nc12` [Example 3, (S)-1-(2-{4-[5-(2-Fluorophenoxy)-7-propoxyoxazolo[5,4-d]pyrimidin-2-yl]-2,6-dimethylphenoxy}acetyl)pyrrolidine-2-carboxylic acid] was 96%; that for `CCCOc1nc(Oc2ccc(F)cc2F)nc2oc(-c3cc(C)c(OCC(=O)N4CCC[C@H]4C(=O)O)c(C)c3)nc12` [Example 7, (S)-1-(2-{4-[5-(2,4-Difluorophenoxy)-7-propoxyoxazolo[5,4-d]pyrimidin-2-yl]-2,6-dimethylphenoxy}acetyl)pyrrolidine-2-carboxylic acid] was 90%.
The figure for `CCCOc1nc(Oc2cccnc2)nc2oc(-c3cc(C)c(OCC(=O)N4CCC[C@H]4C(=O)O)c(C)c3)nc12` [Example 6, (S)-1-(2-{2,6-Dimethyl-4-[7-propoxy-5-(pyridin-3-yloxy)oxazolo[5,4-d]pyrimidin-2-yl]phenoxy}acetyl)pyrrolidine-2-carboxylic acid] is 112%.
For the compound `CCCOc1nc(OC2CCCC[C@H]2F)nc2oc(-c3cc(C)c(OCC(=O)N4CCC[C@H]4C(=O)O)c(C)c3)nc12` (stereo partly drawn) [Example 2, (S)-1-(2-{4-[5-(trans-2-fluorocyclohexyloxy)-7-propoxyoxazolo[5,4-d]pyrimidin-2-yl]-2,6-dimethylphenoxy}acetyl)pyrrolidine-2-carboxylic acid], the activation at 10 µM is 97%.
The figure for `CCCOc1nc(Oc2ccc(C)c(F)c2)nc2oc(-c3cc(C)c(OCC(=O)N4CCC[C@H]4C(=O)O)c(C)c3)nc12` [Example 5, (S)-1-(2-{4-[5-(3-Fluoro-4-methylphenoxy)-7-propoxyoxazolo[5,4-d]pyrimidin-2-yl]-2,6-dimethylphenoxy}acetyl)pyrrolidine-2-carboxylic acid] is 79%; for `CCOc1nc(Oc2cc(F)ccc2F)nc2oc(-c3cc(C)c(OCC(=O)N4CCC[C@H]4C(=O)O)c(C)c3)nc12` [Example 13, (S)-1-(2-{4-[5-(2,5-Difluorophenoxy)-7-ethoxyoxazolo[5,4-d]pyrimidin-2-yl]-2,6-dimethylphenoxy}acetyl)pyrrolidine-2-carboxylic acid] it is 95%; for `CCCOc1nc(Oc2cccc(Cl)c2)nc2oc(-c3cc(C)c(OCC(=O)N4CCC[C@H]4C(=O)O)c(C)c3)nc12` [Example 9, (S)-1-(2-{4-[5-(3-Chlorophenoxy)-7-propoxyoxazolo[5,4-d]pyrimidin-2-yl]-2,6-dimethylphenoxy}acetyl)pyrrolidine-2-carboxylic acid] it is 128%.
For the compound `CCCOc1nc(Oc2cc(F)ccc2C)nc2oc(-c3cc(C)c(OCC(=O)N4CCC[C@H]4C(=O)O)c(C)c3)nc12` [Example 4, (S)-1-(2-{4-[5-(5-Fluoro-2-methylphenoxy)-7-propoxyoxazolo[5,4-d]pyrimidin-2-yl]-2,6-dimethylphenoxy}acetyl)pyrrolidine-2-carboxylic acid], the activation at 10 µM is 110%.
As to `CCOc1nc(Oc2cccc(Cl)c2)nc2oc(-c3cc(C)c(OCC(=O)N4CCC[C@H]4C(=O)O)c(C)c3)nc12` [Example 10, (S)-1-(2-{4-[5-(3-Chlorophenoxy)-7-ethoxyoxazolo[5,4-d]pyrimidin-2-yl]-2,6-dimethylphenoxy}acetyl)pyrrolidine-2-carboxylic acid], the activation at 10 µM came out at 69%.
